Results published in patent US7576108B2, “Substituted arylcyclopropylacetamides as glucokinase activators” (Eli Lilly and Company, priority 2003, dated 2009).
pEC50: −log10 of the molar value.

Target: T1, purified recombinant human islet GK (Homo sapiens, UniProt P35557)
T1 construct: (His)6; made in house; host or cells: E. coli
T1 sequence (P35557 1-465): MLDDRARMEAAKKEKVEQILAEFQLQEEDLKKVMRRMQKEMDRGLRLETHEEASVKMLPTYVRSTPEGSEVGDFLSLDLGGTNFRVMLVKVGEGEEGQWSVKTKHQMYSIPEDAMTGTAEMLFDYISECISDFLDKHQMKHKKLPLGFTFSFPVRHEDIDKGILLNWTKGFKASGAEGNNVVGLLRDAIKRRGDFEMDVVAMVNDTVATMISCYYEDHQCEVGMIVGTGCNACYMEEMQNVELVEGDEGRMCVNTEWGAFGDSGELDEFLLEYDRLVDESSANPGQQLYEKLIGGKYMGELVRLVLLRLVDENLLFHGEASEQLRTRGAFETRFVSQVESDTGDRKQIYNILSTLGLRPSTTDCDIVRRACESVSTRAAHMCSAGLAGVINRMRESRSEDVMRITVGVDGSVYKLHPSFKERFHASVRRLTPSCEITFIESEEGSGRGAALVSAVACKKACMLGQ
Assay: Enzymatic coupled glucokinase (GK) assay (NADH production, absorbance at 340 nm)
Format: biochemical
Details: concentration of activator that produced 50% of maximum increase in the activity of GK; at 10 mM glucose
Text: An enzymatic coupled glucokinase (GK) assay using purified recombinant human islet GK was used to evaluate effects of the activators. In this assay, GK catalyzes glucose phosphorylation in the presence of ATP. The product of this reaction, glucose-6-phosphate, is then oxidized by an excess of glucose-6-dehydrogenase to produce gluconate-6-phosphate with concomitant reduction of NAD^+ to NADH (Davidson and Arion, 1987). The following outlines the two reactions involved: • Glucose+ATP→Glucose-6-P+ADP (Glucokinase) • Glucose-6-P+NAD→Gluconate-6-P+NADH (glucose-6-P dehydrogenase)
The NADH production detected by absorbance at 340 nm is used to monitor the enzymatic activity.
The human islet GK isoform was expressed in E. coli as (His)6-tagged fusion protein and purified with metal chelate affinity chromatography (Tiedge et al., 1997). After purification the enzyme was stored in aliquots at concentration 0.8 mg/ml in 25 mM NaH2PO4, 150 mM NaCl, 100 mM imidazole, 1 mM DTT, 50% glycerol at −80° C.
The assay was performed in flat bottom 96-well plates in a final incubation volume of 100 μl. The incubation mixture consisted of 25 mM HEPES (pH7.4), 50 mM KCl, 2.5 mM MgCl2, 2 mM dithiothreitol, 4 U/ml glucose-6-phosphate dehydrogenase from Leuconostoc mesenteroides, 5 mM ATP, 1 mM NAD and 10 mM glucose. All reagents were from Sigma-Aldrich Co. (St. Louis, Mo.). Test compounds were dissolved in DMSO and then added to the reaction mixture giving the final DMSO concentration of 10%.
The reaction was initiated by addition of 20 μl GK and run for 20 min at 37° C. The amount of formed NADH was measured as an increase in absorbance at 340 nm using a microplate reader.
The concentration of activator that produced 50% of maximum increase in the activity of GK (EC50) was calculated.

Structure (SMILES) | pEC50
CS(=O)(=O)c1ccc([C@@]2(C(=O)Nc3nccs3)C[C@H]2CC2CCCCC2)cc1 (racemic) [Example 2, (±)-(E)-2-Cyclohexylmethyl-1-(4-methanesulfonyl-phenyl)-cyclopropanecarboxylic acid thiazol-2-ylamide] | 5.93
CC(C)C[C@@H]1C[C@]1(C(=O)Nc1nccs1)c1ccc(S(C)(=O)=O)cc1 (racemic) [Example 3, (±)-(E)-2-Isobutyl-1-(4-methanesulfonyl-phenyl)-cyclopropanecarboxylic acid thiazol-2-ylamide] | 5.26
CCN(CC)CCCS(=O)(=O)c1ccc([C@@]2(C(=O)Nc3nccs3)C[C@H]2C2CCCCC2)cc1 (racemic) [Example 7, (±)-(E)-2-Cyclohexyl-1-[4-(3-diethylamino-propane-1-sulfonyl)-phenyl]-cyclopropanecarboxylic acid thiazol-2-ylamide] | 6.15
Cc1nnc(NC(=O)[C@]2(c3ccc(S(C)(=O)=O)cc3)C[C@H]2C2CCCC2)s1 (racemic) [Example 11, (±)-(E)-2-Cyclopentyl-1-(4-methanesulfonyl-phenyl)-cyclopropanecarboxylic acid (5-methyl-[1,3,4]thiadiazol-2-yl)-amide] | 5.03
Cc1cc(NC(=O)[C@]2(c3ccc(S(C)(=O)=O)cc3)C[C@H]2C2CCCC2)no1 (racemic) [Example 13, (±)-(E)-2-Cyclopentyl-1-(4-methanesulfonyl-phenyl)-cyclopropanecarboxylic acid (5-methyl-isoxazol-3-yl)-amide] | 4.90
CS(=O)(=O)c1csc([C@@]2(C(=O)Nc3nccs3)C[C@H]2C2CCCC2)c1 (racemic) [Example 20, (±)-(Z)-2-Cyclopentyl-1-(4-methanesulfonyl-thiophen-2-yl)-cyclopropanecarboxylic acid thiazol-2-ylamide] | 5.72
CS(=O)(=O)c1cccc([C@@]2(C(=O)Nc3nccs3)C[C@H]2C2CCCCC2)c1 (racemic) [Example 35, (±)-(E)-2-Cyclohexyl-1-(3-methanesulfonyl-phenyl)-cyclopropanecarboxylic acid thiazol-2-ylamide] | 5.12
CS(=O)(=O)c1ccc([C@@]2(C(=O)Nc3nccs3)C[C@H]2C2CCCCC2)cc1C(F)(F)F (racemic) [Example 45, (±)-(E)-2-Cyclohexyl-1-(4-methanesulfonyl-3-trifluoromethyl-phenyl)-cyclopropanecarboxylic acid thiazol-2-ylamide] | 6.80
COc1ccc([C@@]2(C(=O)Nc3nccs3)C[C@H]2C2CCCCC2)cc1 (racemic) [Example 48, (±)-(E)-[2-Cyclohexyl-1-(4-methoxy-phenyl)-cyclopropanecarboxylic acid thiazol-2-ylamide]] | 5.06
CNC(=O)c1ccc([C@@]2(C(=O)Nc3nccs3)C[C@H]2C2CCCCC2)cc1 (racemic) [Example 50, (±)-(E)4-[2-Cyclohexyl-1-(thiazol-2-ylcarbamoyl)-cyclopropyl]-N-methyl-benzamide] | 5.12
CC(=O)Nc1ccc([C@@]2(C(=O)Nc3nccs3)C[C@H]2C2CCCCC2)cc1 (racemic) [Example 51, (±)-(E)-1-(4-Acetylamino-phenyl)-2-cyclohexyl-cyclopropanecarboxylic acid thiazol-2-ylamide] | 4.98
CS(=O)(=O)Nc1ccc([C@@]2(C(=O)Nc3nccs3)C[C@H]2C2CCCCC2)cc1 (racemic) [Example 52, (±)-(E)-2-Cyclohexyl-1-(4-methanesulfonylamino-phenyl)-cyclopropanecarboxylic acid thiazol-2-ylamide] | 5.42
COC(=O)c1ccc([C@@]2(C(=O)Nc3nccs3)C[C@H]2C2CCCC2)cc1 (racemic) [Example 73, (±)-(E)-4-[2-Cyclopentyl-1-(thiazol-2-ylcarbamoyl)-cyclopropyl]-benzoic acid methyl ester] | 5.44
Cc1cnc(NC(=O)[C@]2(c3ccc(S(C)(=O)=O)cc3)C[C@H]2C2CCCCC2)s1 (racemic) [Example 77, (±)-(E)-2-Cyclohexyl-1-(4-methanesulfonyl-phenyl)-cyclopropanecarboxylic acid (5-methyl-thiazol-2-yl)-amide] | 6.41
CS(=O)(=O)c1ccc([C@@]2(C(=O)Nc3nccs3)C[C@H]2C2CCCCC2)cc1 (single isomer, unassigned) [55 (Isomer 1)] | 6.82
CS(=O)(=O)c1ccc(C2(C(=O)Nc3nccs3)C(C3CCCCC3)C2(F)F)cc1 (single isomer, unassigned) [63 (Isomer 2), (±)-(E)-3-Cyclohexyl-2,2-difluoro-1-(4-methanesulfonyl-phenyl)-cyclopropanecarboxylic acid thiazol-2-ylamide] | 5.28
O=C(Nc1nccs1)[C@]1(c2ccc(S(=O)(=O)NCCc3ccccn3)cc2)C[C@H]1C1CCCC1 (single isomer, unassigned) [Example 26, (E)-2-Cyclopentyl-1-[4-(2-pyridin-2-yl-ethylsulfamoyl)-phenyl]-cyclopropanecarboxylic acid thiazol-2-ylamide] | 6.44
